# Assay results from PMC8058344, “ARIH1 signaling promotes anti-tumor immunity by targeting PD-L1 for proteasomal degradation” (Nature Communications, 2021).
# System: PD-L1 Ser279
# Experiment: Immunoblots with phospho-specific antibody against PD-L1 Ser279
# Type: cell-based, human
# Conditions: endogenous (H1975, 2 h) and recombinant (HEK293T, 10 μM, 2 h) PD-L1
# Experimental: Fig. 2 Phosphorylation on S279/S283 impairs the stability of PD-L1. a Mapping PD-L1 phosphorylation sites following ES-072 treatment. HEK293T cells were transfected with Flag-PD-L1 and treated with 10 μM ES-072 for 48 h. Immunoprecipitated PD-L1 was analyzed by mass spectrometry following phosphopeptide enrichment. Peptide ionization data corresponding to Ser279/283 are shown. b Schematic diagram of phosphorylated sites on PD-L1. Full-length PD-L1 was separated into an extracellular domain (ECD) and intracellular domain (ICD). SP: signal peptide; TM: transmembrane domain. c Schematic diagram of phosphorylated sites, S279 and S283 in the ICD of PD-L1. Positions of phosphorylated sites were labeled in red. […] Scale bars represent 50 μm. i, j Quantification of IHC analysis for p-PD-L1 (Ser279) (i) and PD-L1 (j) in h. […]
# For western blot analysis, cells were collected and washed with PBS, then lysed in radioimmunoprecipitation assay (RIPA) buffer (1% Triton X-100, 100 mM Tris-HCl pH 8.8, 100 mM NaCl, 0.5 mM EDTA). […] The supernatant was collected and the protein concentration was measured by bicinchoninic acid reaction. […] Signals were detected using chemiluminescence reagents (#4AW001-500, 4A649 Biotech, Co.).
smiles,measurement,value
C=CC(=O)Nc1cccc(Nc2nc(Nc3ccc(N4CCN(C)CC4)nc3OC)ncc2C(F)(F)F)c1 [ES-072],phosphorylation of PD-L1 at Ser279,robust phosphorylation
